For 24 compounds, IC50 results are on record in patent US12060347B2 (BRISTOL-MYERS SQUIBB COMPANY, priority 2016, dated 2024).

SMILES strings stand for the structures.

In the assay the target is T1, human PAR4 (Homo sapiens, UniProt Q96RI0).
T1 construct: expressed in transfected cells; host or cells: HEK293 PAR4 Clone 1.2A (BMS Arctic ID 383940)
T1 sequence (Q96RI0 18-385): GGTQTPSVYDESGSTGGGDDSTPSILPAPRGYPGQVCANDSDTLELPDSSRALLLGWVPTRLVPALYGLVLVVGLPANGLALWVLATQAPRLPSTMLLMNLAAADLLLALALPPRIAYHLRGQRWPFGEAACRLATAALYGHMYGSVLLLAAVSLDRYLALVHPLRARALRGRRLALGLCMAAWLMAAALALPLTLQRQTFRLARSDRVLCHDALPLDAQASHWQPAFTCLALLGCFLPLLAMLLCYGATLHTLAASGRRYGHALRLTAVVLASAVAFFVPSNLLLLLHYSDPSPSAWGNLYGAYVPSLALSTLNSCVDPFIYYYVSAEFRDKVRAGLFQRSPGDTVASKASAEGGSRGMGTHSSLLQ
In words: PAR4 FLIPR assay: antagonism of agonist-peptide-induced calcium mobilization in PAR4-expressing HEK293 cells. Particulars: H-Ala-Phe(4-F)-[…]NH2-induced intracellular calcium mobilization, 11-point curves. In kind it is cell-based. For orientation: Calcium assays in cells follow changes in intracellular calcium, usually with a dye or a luminescent sensor.

Take `COc1cnc2c(-c3nc4cc(F)c(OC[C@@H](C)OC(=O)Nc5ccnc(CCO)c5)nc4s3)cc(C)cc2n1` [Example 696, (R)-1-((6-fluoro-2-(2-methoxy-7-methylquinoxalin-5-yl)thiazolo[5,4-b]pyridin-5-yl)oxy) propan-2-yl (2-(2-hydroxyethyl)pyridin-4-yl)carbamate]: the IC50 (commonly the concentration that gives 50% inhibition) was 2.6 nM.

Consider `COc1cnc2c(-c3nc4cc(F)c(OC[C@@H](C)OC(=O)Nc5ccnc(OCCO)c5)nc4s3)cc(C)cc2n1` [Example 697, (R)-1-((6-fluoro-2-(2-methoxy-7-methylquinoxalin-5-yl)thiazolo[5,4-b]pyridin-5-yl)oxy) propan-2-yl (2-(2-hydroxyethoxy)pyridin-4-yl)carbamate], for which the IC50 was 2.9 nM.

In the case of `COc1cnc2c(-c3nc4cc(F)c(OC[C@@H](C)OC(=O)Nc5ccnnc5)nc4s3)cc(C)cc2n1` [Example 698, (R)-1-((6-fluoro-2-(2-methoxy-7-methylquinoxalin-5-yl)thiazolo[5,4-b]pyridin-5-yl)oxy) propan-2-yl pyridazin-4-ylcarbamate], the IC50 worked out at 17 nM.

Regarding `COc1cnc2c(-c3nc4cc(F)c(OC[C@@H](C)OC(=O)Nc5ccnc(OCCC(C)(C)O)c5)nc4s3)cc(C)cc2n1` [Example 699, (R)-1-((6-fluoro-2-(2-methoxy-7-methylquinoxalin-5-yl)thiazolo[5,4-b]pyridin-5-yl)oxy) propan-2-yl (2-(3-hydroxy-3-methylbutoxy)pyridin-4-yl)carbamate], the IC50 was 1.1 nM.

As to `COc1cnc2c(-c3nc4cc(F)c(OC[C@@H](C)OC(=O)Nc5ccc(OCCO)nc5)nc4s3)cc(C)cc2n1` [Example 700, (R)-1-((6-fluoro-2-(2-methoxy-7-methylquinoxalin-5-yl)thiazolo[5,4-b]pyridin-5-yl)oxy) propan-2-yl (6-(2-hydroxyethoxy)pyridin-3-yl)carbamate], the IC50 worked out at 0.9 nM. With `COc1cnc2c(-c3nc4cc(F)c(OC[C@@H](C)OC(=O)Nc5cnc(OC[C@H](C)O)nc5)nc4s3)cc(C)cc2n1` [Example 701, (R)-1-((6-fluoro-2-(2-methoxy-7-methylquinoxalin-5-yl)thiazolo[5,4-b]pyridin-5-yl)oxy) propan-2-yl (2-((S)-2-hydroxypropoxy)pyrimidin-5-yl)carbamate], the IC50 stood at 2.7 nM. `COc1cnc2c(-c3nc4cc(F)c(OC[C@@H](C)OC(=O)Nc5cnc(OCCC(C)(C)O)nc5)nc4s3)cc(C)cc2n1` [Example 702, (R)-1-((6-fluoro-2-(2-methoxy-7-methylquinoxalin-5-yl)thiazolo[5,4-b]pyridin-5-yl)oxy) propan-2-yl (2-(3-hydroxy-3-methylbutoxy)pyrimidin-5-yl)carbamate]: the IC50 was found to be 4.3 nM. As for `COc1cnc2c(-c3nc4cc(F)c(O[C@@H](C)[C@@H](C)OC(=O)Nc5ccc6[nH]c(=O)oc6c5)nc4s3)cc(C)cc2n1` [Example 708, (2R,3S)-3-((6-fluoro-2-(2-methoxy-7-methylquinoxalin-5-yl)thiazolo[5,4-b]pyridin-5-yl)oxy)butan-2-yl (2-oxo-2,3-dihydrobenzo[d]oxazol-6-yl)carbamate], the figure is 2.6 nM; as for `COc1cnc2c(-c3nc4cc(F)c(O[C@@H](C)[C@@H](C)OC(=O)Nc5cccnc5)nc4s3)cc(C)cc2n1` [Example 709, (2R,3S)-3-((6-fluoro-2-(2-methoxy-7-methylquinoxalin-5-yl)thiazolo[5,4-b]pyridin-5-yl)oxy)butan-2-yl pyridin-3-ylcarbamate], 0.4 nM; as for `COc1cnc2c(-c3nc4cc(F)c(O[C@@H](C)[C@@H](C)OC(=O)Nc5ccc(C)nc5)nc4s3)cc(C)cc2n1` [Example 710, (2R,3S)-3-((6-fluoro-2-(2-methoxy-7-methylquinoxalin-5-yl)thiazolo[5,4-b]pyridin-5-yl)oxy)butan-2-yl (6-methylpyridin-3-yl)carbamate], 1.8 nM. Consider `COc1cnc2c(-c3nc4cc(F)c(O[C@@H](C)[C@@H](C)OC(=O)Nc5cnc(OC)nc5)nc4s3)cc(C)cc2n1` [Example 711, (2R,3S)-3-((6-fluoro-2-(2-methoxy-7-methylquinoxalin-5-yl)thiazolo[5,4-b]pyridin-5-yl)oxy)butan-2-yl (2-methoxypyrimidin-5-yl)carbamate], for which the concentration for half-maximal inhibition (IC50) was 2.4 nM. As for `COC(=O)c1ncc(NC(=O)O[C@H](C)[C@H](C)Oc2nc3sc(-c4cc(C)cc5nc(OC)cnc45)nc3cc2F)cn1` [Example 712, methyl 5-(((((2R,3S)-3-((6-fluoro-2-(2-methoxy-7-methylquinoxalin-5-yl)thiazolo[5,4-b]pyridin-5-yl)oxy)butan-2-yl)oxy)carbonyl)amino)pyrimidine-2-carboxylate], the figure is 3.2 nM; as for `COc1cnc2c(-c3nc4cc(F)c(O[C@@H](C)[C@@H](C)OC(=O)Nc5ccncc5)nc4s3)cc(C)cc2n1` [Example 713, (2R,3S)-3-((6-fluoro-2-(2-methoxy-7-methylquinoxalin-5-yl)thiazolo[5,4-b]pyridin-5-yl)oxy)butan-2-yl pyridin-4-ylcarbamate], 1.8 nM; as for `COc1cnc2c(-c3nc4cc(F)c(O[C@@H](C)[C@@H](C)OC(=O)Nc5cncc(F)c5)nc4s3)cc(C)cc2n1` [Example 714, (2R,3S)-3-((6-fluoro-2-(2-methoxy-7-methylquinoxalin-5-yl)thiazolo[5,4-b]pyridin-5-yl)oxy)butan-2-yl (5-fluoropyridin-3-yl)carbamate], 1.2 nM. On to `COC(=O)c1ccc(NC(=O)O[C@H](C)[C@H](C)Oc2nc3sc(-c4cc(C)cc5nc(OC)cnc45)nc3cc2F)cn1` [Example 715, methyl 5-(((((2R,3S)-3-((6-fluoro-2-(2-methoxy-7-methylquinoxalin-5-yl)thiazolo[5,4-b]pyridin-5-yl)oxy)butan-2-yl)oxy)carbonyl)amino)picolinate], for which the IC50 was 0.9 nM. To `COc1cnc2c(-c3nc4cc(F)c(O[C@@H](C)[C@@H](C)OC(=O)Nc5cncnc5)nc4s3)cc(C)cc2n1` [Example 716, (2R,3S)-3-((6-fluoro-2-(2-methoxy-7-methylquinoxalin-5-yl)thiazolo[5,4-b]pyridin-5-yl)oxy)butan-2-yl pyrimidin-5-ylcarbamate] belongs 2 nM; to `COc1cnc2c(-c3nc4cc(F)c(O[C@@H](C)[C@@H](C)OC(=O)Nc5ccnc(CCO)c5)nc4s3)cc(C)cc2n1` [Example 717, (2R,3S)-3-((6-fluoro-2-(2-methoxy-7-methylquinoxalin-5-yl)thiazolo[5,4-b]pyridin-5-yl)oxy)butan-2-yl (2-(2-hydroxyethyl)pyridin-4-yl)carbamate], 1.6 nM. To `COc1cnc2c(-c3nc4cc(F)c(O[C@@H](C)[C@@H](C)OC(=O)Nc5ccc(CC(C)(C)O)nc5)nc4s3)cc(C)cc2n1` [Example 718, (2R,3S)-3-((6-fluoro-2-(2-methoxy-7-methylquinoxalin-5-yl)thiazolo[5,4-b]pyridin-5-yl)oxy)butan-2-yl (6-(2-hydroxy-2-methylpropyl)pyridin-3-yl)carbamate] belongs 1.7 nM; to `COc1cnc2c(-c3nc4cc(F)c(O[C@@H](C)[C@@H](C)OC(=O)Nc5ccnc(OCCO)c5)nc4s3)cc(C)cc2n1` [Example 719, (2R,3S)-3-((6-fluoro-2-(2-methoxy-7-methylquinoxalin-5-yl)thiazolo[5,4-b]pyridin-5-yl)oxy)butan-2-yl (2-(2-hydroxyethoxy)pyridin-4-yl)carbamate], 1.7 nM; to `COc1cnc2c(-c3nc4cc(F)c(O[C@@H](C)[C@@H](C)OC(=O)Nc5cnc(CCO)nc5)nc4s3)cc(C)cc2n1` [Example 720, (2R,3S)-3-((6-fluoro-2-(2-methoxy-7-methylquinoxalin-5-yl)thiazolo[5,4-b]pyridin-5-yl)oxy)butan-2-yl (2-(2-hydroxyethyl)pyrimidin-5-yl)carbamate], 3.2 nM. Regarding `COc1cnc2c(-c3nc4cc(F)c(O[C@@H](C)[C@@H](C)OC(=O)Nc5cnc(OCCO)nc5)nc4s3)cc(C)cc2n1` [Example 721, (2R,3S)-3-((6-fluoro-2-(2-methoxy-7-methylquinoxalin-5-yl)thiazolo[5,4-b]pyridin-5-yl)oxy)butan-2-yl (2-(2-hydroxyethoxy)pyrimidin-5-yl)carbamate], the IC50 amounted to 2.6 nM. To `COc1cnc2c(-c3nc4cc(F)c(O[C@@H](C)[C@@H](C)OC(=O)Nc5cnc(O[C@H](C)CO)nc5)nc4s3)cc(C)cc2n1` [Example 722, (2R,3S)-3-((6-fluoro-2-(2-methoxy-7-methylquinoxalin-5-yl)thiazolo[5,4-b]pyridin-5-yl)oxy)butan-2-yl (2-(((R)-1-hydroxypropan-2-yl)oxy)pyrimidin-5-yl)carbamate] belongs 1.4 nM.

Consider `COc1cnc2c(-c3nc4cc(F)c(O[C@@H](C)[C@@H](C)OC(=O)Nc5ccnc(CO)c5)nc4s3)cc(C)cc2n1` [Example 723, (2R,3S)-3-((6-fluoro-2-(2-methoxy-7-methylquinoxalin-5-yl)thiazolo[5,4-b]pyridin-5-yl)oxy)butan-2-yl (2-(hydroxymethyl)pyridin-4-yl)carbamate], for which the IC50 was 2.4 nM. To `COc1cnc2c(-c3nc4cc(F)c(O[C@@H](C)[C@@H](C)OC(=O)Nc5cnc(O[C@@H](C)CO)nc5)nc4s3)cc(C)cc2n1` [Example 724, (2R,3S)-3-((6-fluoro-2-(2-methoxy-7-methylquinoxalin-5-yl)thiazolo[5,4-b]pyridin-5-yl)oxy)butan-2-yl (2-(((S)-1-hydroxypropan-2-yl)oxy)pyrimidin-5-yl)carbamate] belongs 2.1 nM.
